Laboratory results published in US10202408B2, “Prodrugs and methods of use thereof” (Health Innovation Ventures B.V., priority 2012, dated 2019).
In brackets after ≈: the same amount, converted by molar mass. Entries after “also recorded” stand apart in the source; their conditions may differ.

Columns and labels:
[1] = Solubility determined by HPLC; type: physicochemical; conditions: plasma or biological fluid; α-Minimal Essential Media (α-MEM) containing 5% Fetal Calf Serum (FCS)
Method: Table Footnote: ^aDetermined in α-Minimal Essential Media (α-MEM) containing 5% Fetal Calf Serum (FCS). ^bDetermined in Phosphate Buffered Saline (PBS) containing 2 equivalents of sodium bicarbonate. ^cDetermined in Lactate Buffer at pH=4.
Solubility and stability of compounds in media (+5% Fetal calf serum), phosphate buffered saline (+sodium bicarbonate) or lactate buffer (at pH=4) were determined by HPLC.

[2] = tested on: HCT116 MCLs with 3% E coli NfsA-expressing cells; experiment: MCL clonogenic bystander assay, HCT116 MCLs seeded with 3% E coli NfsA-expressing cells; type: cell-based, human; conditions: 97% wild type HCT116, 3% E coli NfsA-expressing cells
Method: (§1) In parallel, a three dimensional high-cell density multi-cellular layer (MCL) clonogenic assay was performed. 1×10^6 cells of either 100% HCT-116^WT or containing 97% WT with a minor 3% HCT-116^NTR cell population were seeded into a collagen-coated Teflon microporous membrane and left to grow for 3 days. MCLs were then exposed to prodrug for 5 h. After treatment, MCLs were enzyme dissociated, diluted in fresh medium and plated to determine clonogenic survival. To discriminate clonogenic activator (NTR+) from target (NTR−) colonies, cells were plated in non-selective medium (total cells) and medium containing 1 μM puromycin (activator cells). Colonies were grown for 10 days before staining. Colonies containing >50 cells were counted. A variation of this assay was also used to assess for evidence of AKR1C3-dependent cytotoxicity. Here either 100% HCT-116W^T or 100% HCT-116^AKR1C3 cells were seeded to provide MCLs that were then exposed to prodrug.

[3] = tested on: bacterial nitroreductases from the NfsA and NfsB families; experiment: GFP SOS assay with nitroreductase over-expression library; type: cell-based, E. coli strain SOS-R4; conditions: 55 candidate nitroreductase library, 6 h challenge
Text: The method employed the over-expression of a candidate nitroreductase gene from plasmid pUCX in an SOS reporter strain, as first described in Prosser et al., 2010, Biochem Pharmacol 79, 678-687. In order to enhance the sensitivity of the SOS reporter system, an sfiA::GFP reporter construct was integrated into a CDF-based plasmid (which contains a compatible origin of replication with pUCX) to give the pANODuet reporter plasmid for GFP screening. In addition, nfsA, nfsB, azoR, and nemA genes were deleted to minimise background metabolism, and the tolC gene deleted to minimise efflux of test compounds; this strain was designated SOS-R3. Further improvements were obtained by deleting the mdaB, ycaK, and yieF genes to minimise background metabolism, and by introducing transcriptional terminators to the pANODUET reporter plasmid. This final reporter strain was designated SOS-R4.
Stored glycerols of the 55-membered nitroreductase library in SOS-R4 were thawed and used to inoculate overnight cultures (Lysogeny Broth (LB) amended with 100 μg ml^−1 Ampicillin, 50 μg ml^−1 Spectinomycin, 0.4% glucose) that were incubated at 30° C., 200 rpm for 16 h. The next morning the GFP-SOS assay was commenced by inoculation of 195 μl fresh assay media (LB+100 μg ml^−1 Ampicillin, 50 μg ml^−1 Spectinomycin, 0.2% glucose, 50 μM IPTG) with 15 μl of overnight culture in individual wells of a 96-well plate. Plates were incubated at 30° C., 200 rpm for 2.5 h (pre-challenge period), following which cultures were diluted 1:2 by splitting 50:50 into fresh assay media (+DMSO to 0.5% final concentration) and fresh challenge media (assay media+drug to desired concentration, DMSO to 0.5% final concentration) to final volumes of 80 μl apiece in duplicate on a 384-well plate. Plates were incubated at 30° C., 200 rpm for 6 h (challenge period). GFP expression was determined at excitation 488 nm/emission 509 nm. Turbidity was determined by OD600 and fluorescence data from any replicates not found to be within 15% of the median culture turbidity were discarded.

[4] = tested on: bacterial nitroreductases from the NfsA and NfsB families; experiment: as above; type: cell-based, E. coli strain SOS-R4; conditions: single and poly mutated variants of NfsA_Ec, single-mutated variant of NfsA_Bs
[5] = tested on: HCT116 MCLs over-expressing AKR1C3; experiment: Multicellular layer (MCL) clonogenic assay, HCT116 wild type versus AKR1C3 over-expressing MCLs; type: cell-based, human
Method: as §1

[6] = tested on: HCT116 cells engineered to over-express human aldo-ketoreductase 1C3 (AKR1C3); experiment: Low cell density IC50 (SRB) assay, HCT116 wild type versus AKR1C3 over-expressing cells; type: cell-based; conditions: 4 h exposure
Method: (§2) Compounds were subjected to testing, including low-cell density cytotoxicity assay. Cells (500 cells/well) were seeded in 96-well plates and exposed to prodrug for 4 h, washed, then left to grow for a further 5 days. The SRB assay was employed to determine IC50 values (concentration of prodrug required to inhibit proliferation by 50%). Parental HCT116 cells (HCT116 is a cell line derived from human colon cancer) and cells expressing the example nitroreductase gene nfsA from Escherichia coli were evaluated head-to-head. Parental H1299 cells (H1299 is a cell line derived from lung cancer) and cells expressing the example nitroreductase gene nfsA from Escherichia coli were evaluated head-to-head. Parental HCT116 cells and cells expressing human AKR1C3 were evaluated head-to-head. Parental H1299 cells and cells expressing human AKR1C3 were evaluated head-to-head. In a variation of these assays test compounds were assessed for their ability to give hypoxia-selective cell killing. Here wild type HCT116, H460 (H460 is a cell line derived from lung cancer), H1299 and SiHa cells (SiHa is a cell line derived from cervical cancer) were used in addition to HCT116 cells engineered to over express cytochrome P450 reductase (HCT116 POR), a human one-electron nitroreductase. Low-cell density cytotoxicity assays were performed as above under oxic conditions and compared to experiments where cells were shown 4 h of anoxia during the prodrug exposure period, before being washed free of prodrug and then left to grow for a further 5 days under oxic conditions, as above.

[7] = tested on: HCT116 cells engineered to over-express E coli NfsA; experiment: Low cell density IC50 (SRB) assay, HCT116 wild type versus E coli NfsA over-expressing cells; type: cell-based, human
Method: as §2

[8] = tested on: H1299 cells engineered to over-express E coli NfsA; experiment: Low cell density IC50 (SRB) assay, H1299 wild type versus E coli NfsA over-expressing cells; type: cell-based, human
Method: as §2

[9] = tested on: HCT116 POR cell line (over-expressing Cytochrome P450 reductase); experiment: Oxic versus anoxic low cell density IC50 assay, HCT116 POR cells; type: cell-based, human; conditions: HCT116 POR cell line compared with wild type
Method: as §2, with “Low-cell density cytotoxicity assays were performed as above under oxic conditions and compared to experiments where cells were shown 4 h of anoxia during the prodrug exposure period, before being washed free of prodrug and then left to grow for a further 5 days under oxic conditions, as above.” left out

[10] = tested on: HCT116, H460, H1299 and SiHa wild type cancer cell lines; experiment: Oxic versus anoxic low cell density IC50 assay, wild type cancer cell lines; type: cell-based, human; conditions: 4 h anoxia during prodrug exposure versus oxic
Method: as §2

[11] = tested on: 15% E coli NfsA-expressing HCT116 xenografts; experiment: Tumour growth delay, 15% E coli NfsA-expressing HCT116 xenografts; type: in vivo, NIH-III mice; conditions: single dose; 10, 22 and 60 at 1000, 422 and 1330 umol/kg
Method: Animals weighed 18-25 g at the time of tumour inoculation. Tumours were grown subcutaneously on the right flank of mice by inoculating cells grown in tissue culture (1×10^7 cells in 100 uL serum free α-MEM). Tumour sizes were monitored three times weekly using electronic callipers and treatments were initiated once tumour diameter reached ≥7 mm.
Tumour bearing mice were randomised into the appropriate treatment groups and tumour size and body weight recorded. Test compounds were formulated on the day of the experiment and kept in foil-wrapped tubes out of direct fluorescent light. If recruitment of animals occurred over multiple days, the drug stocks were aliquoted into tubes and frozen once at […] until required. Mice were treated with a single (or BID) dose of prodrug by intraperitoneal injection and thereafter tumour size and body weight was monitored every second day. Tumour volume was calculated as π (l×w×w)/6, where l is the major axis and w is the perpendicular minor axis. Animals were culled when they had reached the appropriate survival endpoint or when body weight loss exceeded 20% of the pre-treatment value.

[12] = tested on: 15% E coli NfsA-expressing H1299 xenografts; experiment: Tumour growth delay, 15% E coli NfsA-expressing H1299 xenografts; type: in vivo, NIH-III mice
[13] = tested on: wild type SiHa tumour xenografts; experiment: Excision assay with and without radiation, wild type SiHa tumour xenografts; type: in vivo, NIH-III nude mice; conditions: for cell killing in combination with radiation versus radiation alone: HCT116 POR and wild type SiHa xenografts, 10 or 15Gy, single (or BID) intraperitoneal dose; for hypoxic cell kill in vivo (log cell kill): with or without 10Gy radiation, 22 at 422, 300 and 11 at 1330, 23 at 1000 umol/kg
Method: (§3) Tumours were grown subcutaneously in the flank of NIH-III mice by inoculating cells grown in tissue culture. Tumours were monitored using electronic calipers. When tumours reached treatment size, mice were randomized to treatment groups (five to seven per group). Compounds were given as single (or BID) intraperitoneal doses alone or 5 min after whole body irradiation (^60Co source). Eighteen hours after treatment, tumours were excised, weighed, minced, dissociated enzymatically, and plated to determine clonogenicity. Clonogens/gram of tissue were calculated relative to controls and effects of treatment were tested for significance (ANOVA with Dunnett's).

[14] = tested on: H1299 cells engineered to over-express human aldo-ketoreductase 1C3 (AKR1C3); experiment: Low cell density IC50 (SRB) assay, H1299 wild type versus AKR1C3 over-expressing cells; type: cell-based; conditions: 4 h exposure
Method: as §2

[15] = tested on: HCT116 tumour xenografts over-expressing Cytochrome P450 reductase; experiment: Excision assay with and without radiation, HCT116 POR tumour xenografts; type: in vivo, mice; conditions: 1330 μmol/kg, with or without 15Gy radiation
Method: as §3

SMILES | solubility [1] [µM] | bystander cell killing in MCLs [2] | metabolism by bacterial nitroreductases (SOS response) [3] | activity with mutated nitroreductase variants [4] | AKR1C3-dependent clonogenic cell kill in MCLs [5] | AKR1C3-mediated cytotoxicity (IC50 wild type versus AKR1C3) [6] | E coli NfsA-mediated cytotoxicity (IC50 wild type versus NfsA) [7] | E coli NfsA-mediated cytotoxicity (IC50 wild type versus NfsA) [8] | Hypoxic Cytotoxicity Ratios (HCR) [9] | hypoxia-dependent cytotoxicity [10] | E coli NfsA mediated anti-tumour efficacy (mean tumour volume) [11] | E coli NfsA mediated anti-tumour efficacy (mean tumour volume) ([12]; 500 umol/kg twice daily (BID), total 1000 umol/kg) | tumour growth delay ([12]; mixed HCT116 and H1299 xenografts, 15% E coli NfsA cells, single (or BID) intraperitoneal dose) | E coli NfsA mediated anti-tumour efficacy (mean tumour volume) ([12]; single dose, 10, 22, 60 and 11 at 750, 422, 1330 and 1330 umol/kg) | cell killing in combination with radiation versus radiation alone [13] | hypoxic cell kill in vivo (log cell kill) [13] | AKR1C3-mediated cytotoxicity (IC50 wild type versus AKR1C3) [14] | hypoxic cell kill in vivo (log cell kill) [15]
CS(=O)(=O)c1cc([N+](=O)[O-])c(C(N)=O)cc1N(CCBr)CCBr [compound 4] | 68 (≈ 32.2 µg/mL) | – | – | – | – | – | – | – | – | – | – | – | – | – | – | – | – | –
CN(CCO)C(=O)c1cc(N(CCBr)CCBr)c(S(C)(=O)=O)cc1[N+](=O)[O-] [compound 14, 5-(bis(2-bromoethyl)amino)-N-(2-hydroxyethyl)-N-methyl-4-(methylsulfonyl)-2-nitrobenzamide] | – | display evidence of metabolism by the 3% E coli NfsA-expressing cells with bystander cell killing of the 97% non-expressing neighbour cells | substrates for multiple wild type and mutant bacterial nitroreductases from the NfsA and NfsB families | demonstrated | do not cause AKR1C3-dependant cytotoxicity | less susceptible to AKR1C3-mediated cytotoxicity than PR-104A | produce E coli NfsA-mediated cytotoxicity | produce E coli NfsA-mediated cytotoxicity | Larger HCRs; also recorded: The degree of this effect was increased | increased cytotoxicity in cells under hypoxia | – | – | – | – | – | – | – | –
CN1CCN(C(=O)c2cc(N(CCBr)CCBr)c(S(C)(=O)=O)cc2[N+](=O)[O-])CC1 [compound 22, (5-(bis(2-bromoethyl)amino)-4-(methylsulfonyl)-2-nitrophenyl)(4-methylpiperazin-1-yl)methanone] | – | display evidence of metabolism by the 3% E coli NfsA-expressing cells with bystander cell killing of the 97% non-expressing neighbour cells | substrates for multiple wild type and mutant bacterial nitroreductases from the NfsA and NfsB families | demonstrated | do not cause AKR1C3-dependant cytotoxicity | less susceptible to AKR1C3-mediated cytotoxicity than PR-104A | produce E coli NfsA-mediated cytotoxicity | produce E coli NfsA-mediated cytotoxicity | Larger HCRs; also recorded: The degree of this effect was increased | increased cytotoxicity in cells under hypoxia | display significant E coli NfsA mediated anti-tumour efficacy | display significant E coli NfsA mediated anti-tumour efficacy | profound tumour growth delay | display significant E coli NfsA mediated anti-tumour efficacy | increased cell killing above what could be achieved with radiation alone | significant hypoxic cell kill in vivo | less susceptible to AKR1C3-mediated cytotoxicity than PR-104A | –
CS(=O)(=O)c1cc([N+](=O)[O-])c(C(=O)NCCOP(=O)(O)O)cc1N(CCBr)CCBr [compound 300, 2-(5-(bis(2-bromoethyl)amino)-4-(methylsulfonyl)-2-nitrobenzamido)ethyl dihydrogen phosphate] | – | – | – | – | – | – | – | – | – | – | – | – | – | – | increased cell killing above what could be achieved with radiation alone | significant hypoxic cell kill in vivo | – | significant hypoxic cell kill in vivo
